Laboratory results taken from patent US8614201B2 (Janssen Pharmaceutica NV, priority 2009, dated 2013).

Each molecule was assayed against Human TRPA1 (Homo sapiens, UniProt O75762) (assay: Assay 1: In vitro cellular testing of TRPA1 modulation (CHO-TREx, Fluo-3 calcium fluorescence, AITC agonist)). Details: CHO-TREx cells expressing human TRPA1; Fluo-3 fluorescence (FLIPR/Tetra); agonist 15 μM allyl isothiocyanate (AITC); 30 minute antagonist incubation.
Assay type: cell-based
Set-up: expressed in transfected cells; host or cells: CHO-TREx cells (Invitrogen), vector pcDNA4/TO
In short: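 Antagonist potency is the 50% reduction of the AITC (15 μM) calcium response, Hill-fitted against no-antagonist and 10 μM ruthenium red controls. Fluo-3-loaded (4 μM) CHO-TREx cells with tetracycline-inducible human TRPA1 got compound in HEPES saline pH 7.4 for 30 min, usually from 10 μM in three-fold dilutions.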

Sequence of Human TRPA1 (O75762 whole entry): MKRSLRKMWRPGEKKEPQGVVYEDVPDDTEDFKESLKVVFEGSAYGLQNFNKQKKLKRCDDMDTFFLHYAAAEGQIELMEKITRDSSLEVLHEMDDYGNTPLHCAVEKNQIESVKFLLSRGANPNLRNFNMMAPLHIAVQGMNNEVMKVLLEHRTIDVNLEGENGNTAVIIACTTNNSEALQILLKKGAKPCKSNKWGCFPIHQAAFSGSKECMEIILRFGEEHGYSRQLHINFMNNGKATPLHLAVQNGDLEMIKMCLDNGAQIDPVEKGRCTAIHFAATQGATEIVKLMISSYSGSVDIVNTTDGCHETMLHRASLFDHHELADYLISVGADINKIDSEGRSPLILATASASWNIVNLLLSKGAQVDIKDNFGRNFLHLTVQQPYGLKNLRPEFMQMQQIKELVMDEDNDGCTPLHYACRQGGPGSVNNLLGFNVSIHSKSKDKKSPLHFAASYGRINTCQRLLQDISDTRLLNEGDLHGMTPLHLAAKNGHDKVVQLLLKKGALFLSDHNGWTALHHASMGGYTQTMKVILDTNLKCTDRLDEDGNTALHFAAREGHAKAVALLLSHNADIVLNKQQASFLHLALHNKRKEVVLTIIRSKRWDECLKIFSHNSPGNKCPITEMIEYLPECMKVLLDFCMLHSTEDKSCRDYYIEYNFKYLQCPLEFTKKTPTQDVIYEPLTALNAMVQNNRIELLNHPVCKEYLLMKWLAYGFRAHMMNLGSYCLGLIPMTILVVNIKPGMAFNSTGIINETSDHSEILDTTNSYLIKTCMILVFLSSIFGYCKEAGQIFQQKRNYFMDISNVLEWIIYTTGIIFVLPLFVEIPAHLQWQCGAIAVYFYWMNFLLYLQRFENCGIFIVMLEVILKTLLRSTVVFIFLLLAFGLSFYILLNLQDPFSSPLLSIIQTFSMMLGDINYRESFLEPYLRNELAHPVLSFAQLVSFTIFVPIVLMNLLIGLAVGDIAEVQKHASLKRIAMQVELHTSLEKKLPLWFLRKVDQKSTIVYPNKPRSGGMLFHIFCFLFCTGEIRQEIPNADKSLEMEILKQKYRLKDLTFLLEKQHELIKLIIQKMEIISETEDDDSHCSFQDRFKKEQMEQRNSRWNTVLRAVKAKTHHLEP

| SMILES | IC50 |
| --- | --- |
| O=C(NCc1cc(-c2ccc(C(F)(F)F)cc2)nc(N2CCCC2)c1)[C@@H]1CCCN1S(=O)(=O)c1ccc(F)cc1 [Example 317, 1-(4-Fluoro-benzenesulfonyl)-pyrrolidine-S2-carboxylic acid [2-pyrrolidin-1-yl-6-(4-trifluoromethyl-phenyl)-pyridin-4-ylmethyl]-amide] | 16 nM |
| O=C(NCc1cc(-c2ccc(C(F)(F)F)cc2)nc(N2CCCCC2)c1)[C@@H]1CCCN1S(=O)(=O)c1ccc(F)cc1 [Example 318, 1-(4-Fluoro-benzenesulfonyl)-pyrrolidine-S2-carboxylic acid [6′-(4-trifluoromethyl-phenyl)-3,4,5,6-tetrahydro-2H-[1,2′]bipyridinyl-4′-ylmethyl]-amide] | 29 nM |
| O=C(NCc1cc(-c2ccc(C(F)(F)F)cc2)nc(N2CCCCC2)c1)[C@@H]1CCCN1S(=O)(=O)c1ccc(Cl)s1 [Example 319, 1-(5-Chloro-thiophene-2-sulfonyl)-pyrrolidine-S2-carboxylic acid [6′-(4-trifluoromethyl-phenyl)-3,4,5,6-tetrahydro-2H-[1,2′]bipyridinyl-4′-ylmethyl]-amide] | 21 nM |
| O=C(NCc1cc(NCc2ccccc2)nc(-c2ccc(C(F)(F)F)cc2)c1)[C@@H]1C=CCN1S(=O)(=O)c1ccc(Cl)s1 [Example 320, (2S)—N-({2-(Benzylamino)-6-[4-(trifluoromethyl)phenyl]pyridin-4-yl}methyl)-1-[(5-chlorothiophen-2-yl)sulfonyl]-2,5-dihydro-1H-pyrrole-2-carboxamide] | 745 nM |
| O=C(NCc1cc(NCc2ccccc2)nc(-c2ccc(C(F)(F)F)cc2)c1)[C@@H]1C=CCN1S(=O)(=O)c1ccc(F)cc1 [Example 321, (2S)—N-({2-(Benzylamino)-6-[4-(trifluoromethyl)phenyl]pyridin-4-yl}methyl)-1-[(4-fluorophenyl)sulfonyl]-2,5-dihydro-1H-pyrrole-2-carboxamide] | 1020 nM |
| O=C(NCc1cc(NCc2ccccc2)nc(-c2ccc(C(F)(F)F)cc2)c1)[C@@H]1CCCN1S(=O)(=O)c1ccc(F)cc1 [Example 322, N-({2-(Benzylamino)-6-[4-(trifluoromethyl)phenyl]pyridin-4-yl}methyl)-1-[(4-fluorophenyl)sulfonyl]-L-prolinamide] | 1180 nM |
| O=C(NCc1cc(NCc2ccccc2)nc(-c2ccc(C(F)(F)F)cc2)c1)[C@@H]1CCCN1S(=O)(=O)c1ccc(Cl)s1 [Example 323, N-({2-(Benzylamino)-6-[4-(trifluoromethyl)phenyl]pyridin-4-yl}methyl)-1-[(5-chlorothiophen-2-yl)sulfonyl]-L-prolinamide] | 510 nM |
| O=C(NCc1cc(-c2ccc(C(F)(F)F)cc2)nc(N2CCN(c3ccccc3F)CC2)c1)[C@@H]1CCCN1S(=O)(=O)c1ccc(Cl)s1 [Example 324, 1-[(5-Chlorothiophen-2-yl)sulfonyl]-N-({2-[4-(2-fluorophenyl)piperazin-1-yl]-6-[4-(trifluoromethyl)phenyl]pyridin-4-yl}methyl)-L-prolinamide] | 412 nM |
| O=C(NCc1cc(-c2ccc(C(F)(F)F)cc2)nc(N2CCN(c3ccccc3F)CC2)c1)[C@@H]1CCCN1S(=O)(=O)c1ccc(F)cc1 [Example 325, N-({2-[4-(2-Fluorophenyl)piperazin-1-yl]-6-[4-(trifluoromethyl)phenyl]pyridin-4-yl}methyl)-1-[(4-fluorophenyl)sulfonyl]-L-prolinamide] | 845 nM |
| O=C(NCc1cc(-c2ccc(C(F)(F)F)cc2)nc(N2CCN(c3ccccc3F)CC2)c1)[C@@H]1C=CCN1S(=O)(=O)c1ccc(F)cc1 [Example 326, (2S)—N-({2-[4-(2-Fluorophenyl)piperazin-1-yl]-6-[4-(trifluoromethyl)phenyl]pyridin-4-yl}methyl)-1-[(4-fluorophenyl)sulfonyl]-2,5-dihydro-1H-pyrrole-2-carboxamide] | 5970 nM |
| O=C(NCc1cc(-c2ccc(C(F)(F)F)cc2)nc(N2CCN(Cc3ccncc3)CC2)c1)[C@@H]1CCCN1S(=O)(=O)c1ccc(Cl)s1 [Example 327, 1-[(5-Chlorothiophen-2-yl)sulfonyl]-N-({2-[4-(pyridin-4-ylmethyl)piperazin-1-yl]-6-[4-(trifluoromethyl)phenyl]pyridin-4-yl}methyl)-L-prolinamide] | 587 nM |
| O=C(NCc1cc(-c2ccc(C(F)(F)F)cc2)nc(N2CCN(Cc3cccnc3)CC2)c1)[C@@H]1CCCN1S(=O)(=O)c1ccc(F)cc1 [Example 328, 1-[(4-Fluorophenyl)sulfonyl]-N-({2-[4-(pyridin-3-ylmethyl)piperazin-1-yl]-6-[4-(trifluoromethyl)phenyl]pyridin-4-yl}methyl)-L-prolinamide] | 682 nM |
| O=C(NCc1cc(-c2ccc(C(F)(F)F)cc2)nc(N2CCN(Cc3ccncc3)CC2)c1)[C@@H]1C=CCN1S(=O)(=O)c1ccc(F)cc1 [Example 329, (2S)-1-[(4-Fluorophenyl)sulfonyl]-N-({2-[4-(pyridin-4-ylmethyl)piperazin-1-yl]-6-[4-(trifluoromethyl)phenyl]pyridin-4-yl}methyl)-2,5-dihydro-1H-pyrrole-2-carboxamide] | 1760 nM |
| O=C(NCc1cc(NCc2ccccn2)nc(-c2ccc(C(F)(F)F)cc2)c1)[C@@H]1C=CCN1S(=O)(=O)c1ccc(Cl)s1 [Example 330, (2S)-1-[(5-Chlorothiophen-2-yl)sulfonyl]-N-({2-[(pyridin-2-ylmethyl)amino]-6-[4-(trifluoromethyl)phenyl]pyridin-4-yl}methyl)-2,5-dihydro-1H-pyrrole-2-carboxamide] | 604 nM |
| CN(C)c1cc(CNC(=O)[C@@H]2CCCN2S(=O)(=O)c2ccc(F)cc2)cc(-c2ccc(C(F)(F)F)cc2)n1 [Example 331, N-({2-(Dimethylamino)-6-[4-(trifluoromethyl)phenyl]pyridin-4-yl}methyl)-1-[(4-fluorophenyl)sulfonyl]-L-prolinamide] | 176 nM |
| CN(C)c1cc(CNC(=O)[C@@H]2CCCN2S(=O)(=O)c2ccc(Cl)s2)cc(-c2ccc(C(F)(F)F)cc2)n1 [Example 332, 1-[(5-Chlorothiophen-2-yl)sulfonyl]-N-({2-(dimethylamino)-6-[4-(trifluoromethyl)phenyl]pyridin-4-yl}methyl)-L-prolinamide] | 58 nM |
| CC1CCCN1c1cc(CNC(=O)[C@@H]2CCCN2S(=O)(=O)c2ccc(Cl)s2)cc(-c2ccc(C(F)(F)F)cc2)n1 (stereo partly drawn) [Example 333, 1-[(5-Chlorothiophen-2-yl)sulfonyl]-N-({2-(2-methylpyrrolidin-1-yl)-6-[4-(trifluoromethyl)phenyl]pyridin-4-yl}methyl)-L-prolinamide] | 73 nM |
| CN(C)c1cc(CNC(=O)[C@@H]2C=CCN2S(=O)(=O)c2ccc(Cl)s2)cc(-c2ccc(C(F)(F)F)cc2)n1 [Example 334, (2S)-1-[(5-Chlorothiophen-2-yl)sulfonyl]-N-({2-(dimethylamino)-6-[4-(trifluoromethyl)phenyl]pyridin-4-yl}methyl)-2,5-dihydro-1H-pyrrole-2-carboxamide] | 2630 nM |
| CNc1cc(CNC(=O)[C@@H]2CCCN2S(=O)(=O)c2ccc(Cl)s2)cc(-c2ccc(C(F)(F)F)cc2)n1 [Example 335, 1-[(5-Chlorothiophen-2-yl)sulfonyl]-N-({2-(methylamino)-6-[4-(trifluoromethyl)phenyl]pyridin-4-yl}methyl)-L-prolinamide] | 179 nM |
| CC1CCCN1c1cc(CNC(=O)[C@@H]2CCCN2S(=O)(=O)c2ccc(F)cc2)cc(-c2ccc(C(F)(F)F)cc2)n1 (stereo partly drawn) [Example 336, 1-[(4-Fluorophenyl)sulfonyl]-N-({2-(2-methylpyrrolidin-1-yl)-6-[4-(trifluoromethyl)phenyl]pyridin-4-yl}methyl)-L-prolinamide] | 113 nM |
| CNc1cc(CNC(=O)[C@@H]2CCCN2S(=O)(=O)c2ccc(F)cc2)cc(-c2ccc(C(F)(F)F)cc2)n1 [Example 337, 1-[(4-Fluorophenyl)sulfonyl]-N-({2-(methylamino)-6-[4-(trifluoromethyl)phenyl]pyridin-4-yl}methyl)-L-prolinamide] | 1010 nM |
| CN(C)c1cc(CNC(=O)[C@@H]2C=CCN2S(=O)(=O)c2ccc(F)cc2)cc(-c2ccc(C(F)(F)F)cc2)n1 [Example 338, (2S)—N-({2-(Dimethylamino)-6-[4-(trifluoromethyl)phenyl]pyridin-4-yl}methyl)-1-[(4-fluorophenyl)sulfonyl]-2,5-dihydro-1H-pyrrole-2-carboxamide] | 382 nM |
| O=C(NCc1cc(-c2ccc(C(F)(F)F)cc2)nc(N2CCN(Cc3ccccn3)CC2)c1)[C@@H]1CCCN1S(=O)(=O)c1ccc(Cl)s1 [Example 339, 1-[(5-Chlorothiophen-2-yl)sulfonyl]-N-({2-[4-(pyridin-2-ylmethyl)piperazin-1-yl]-6-[4-(trifluoromethyl)phenyl]pyridin-4-yl}methyl)-L-prolinamide] | 251 nM |
| O=C(NCc1cc(-c2ccc(C(F)(F)F)cc2)nc(N2CCN(Cc3ccncc3)CC2)c1)[C@@H]1C=CCN1S(=O)(=O)c1ccc(Cl)s1 [Example 340, (2S)-1-[(5-Chlorothiophen-2-yl)sulfonyl]-N-({2-[4-(pyridin-4-ylmethyl)piperazin-1-yl]-6-[4-(trifluoromethyl)phenyl]pyridin-4-yl}methyl)-2,5-dihydro-1H-pyrrole-2-carboxamide] | 210 nM |
| O=C(NCc1cc(-c2ccc(C(F)(F)F)cc2)nc(N2CCN(Cc3cccnc3)CC2)c1)[C@@H]1CCCN1S(=O)(=O)c1ccc(Cl)s1 [Example 341, 1-[(5-Chlorothiophen-2-yl)sulfonyl]-N-({2-[4-(pyridin-3-ylmethyl)piperazin-1-yl]-6-[4-(trifluoromethyl)phenyl]pyridin-4-yl}methyl)-L-prolinamide] | 693 nM |
